Measured values as given in patent US5250542A, “Peripherally selective piperidine carboxylate opioid antagonists” (Eli Lilly and Company, priority 1992, dated 1993).
pKi: −log10 of the molar value. Structures can show the parent of a compound that is named as a salt. Where two headings read alike, the source gives them in different places.

What was measured:
opioid receptor = target: T1, opioid receptor (Mus musculus, UniProt P42866); assay: mouse writhing analgesis test: block of morphine-induced analgesia; type: in vivo, CF-1 male mice; design: unit not given here; settings: dose of antagonist that reduced the inhibition of writhing produced by 1.25 mg/kg morphine sulfate to 50%, subcutaneous, 20 min before acetic acid
T1 construct: Five CF-1 male mice (Charles River, Portage, Mich.); from tissue; host or cells: living CF-1 male mice (in vivo test; endogenous receptor)
Description: In order to determine in vivo opioid receptor antagonism, the mouse writhing analgesis test was used. Test compounds were measured for their ability to block morphine-induced analgesia.
Five CF-1 male mice (Charles River, Portage, Mich.), weighing approximately 20 g after being fasted overnight, were observed simultaneously for the writhing response. The writhing response was defined as a contraction of the abdominal musculature, followed by the extension of the hind limbs, and was induced by the intraperitoneal adminstration of 0.6% acetic acid in a volumne of 1 ml/100 g body weight. The observation period was 10 min. in duration, beginning 5 min. after injection of acetic acid. The percent inhibition of writhing was calculated from the average number of writhes in the control (non-drug) group. Each data point is the mean (±standarderror) for five mice. The ED50 was defined as the dose of agonist that inhibited mean writhing by 50%. […] Each mouse was only used once. All drugs were administered subcutaneously (1 ml/100 g bwt) 20 min. before the injection of acetic acid.

[1] = target: T2, peripheral opioid receptors (Mus musculus, UniProt P42866); assay: precipitated diarrhea in morphine-maintained mice (peripheral opioid activity) and comparison with the writhing test; type: in vivo; design: ED50 (diarrhea): unit not given beside the values; settings: for Ratio (AD50 mouse writhing test / ED50 mouse diarrhea test): higher ratio = greater relative antagonism of peripheral opioid receptors; for ED50: mouse, 0.5 h; for ED50 / ED50 (diarrhea): morphine-maintained mice, antagonist subcutaneous or oral, 30 min observation; for ED50 (diarrhea): 30 min
T2 construct: Mice maintained (6 mice/cage) on 0.01M saccharin water with 1 g/1 morphine sulfate; from tissue; host or cells: living morphine-maintained mice (in vivo test; endogenous receptor)
Description: Determinations of peripheral opioid activity were conducted. Mice maintained (6 mice/cage) on 0.01M saccharin water with 1 g/1 morphine sulfate for a minimum of 10 days with mice averaging 3.0^+ g water/mouse/day for at least three days are used as subjects. The morphine water was removed 45 min. prior to injection with the proposed opioid antagonist. Initial testing consisted of 5 mice/dose of compound. The antagonist was given by the subcutaneous or oral, route of administration,and the mice were placed in 11-14"×4 7/12 I.D. clear plastic cylinders with white paper towels used for a floor.
The mice were then monitored visually for 30 minutes post-injection for the presence of jumping and of diarrhea. Jumping was scored as positive if at least one jump occurred in 30 min. Diarrhea was scored as positive when feces were moist enough to stain the white paper at the base of the cylinder. After 30 minutes of testing, the mice were placed back in original cages, put back on morphine water, and not tested again for 48 hrs. Lower doses of the antagonist compounds were tested until threshold doses for diarrhea were determined. Diarrhea is a peripherally mediated sign of precipitated opiate abstinence.
The extent of the effect on peripheral activity compared to central activity of the present compounds can-be determined by comparing the AD50 for the mouse writhing test with the ED50 for the mouse diarrhea test. The higher the ratio, the greater the relative antagonism of the peripheral opioid receptors by a particular compound.

mu receptor = target: T3, mu receptor (Rattus norvegicus, UniProt P33535); assay: opioid receptor binding assay, [3H] NAL (tritiated naloxone), mu receptor; design: species or system rat (Male Sprague Dawley), brain minus cerebellum
T3 construct: rat whole brain minus cerebellum for mu was homogenized; from tissue; host or cells: brain of male Sprague Dawley rats, whole brain minus cerebellum, homogenate fraction
Description: This assay was conducted by the following procedure.
Male Sprague Dawley rats for mu site experiments were sacrificed via decapitation and the brains were removed. The brain tissue, rat whole brain minus cerebellum for mu was homogenized in a Teflon and glass tissue homogenizer. A supernatant I, pellet IV, fraction was frozen in a nitrogen freezer at 1.33 g/ml concentration and stored for not longer than five weeks prior to use. Pellets were rehydrated with physiological buffer prior to use.
The reaction was initiated by the addition of the resuspended tissue which had been preincubated at 37° C. for 20 minutes. The reaction mixture was incubated in a 37° C. water bath for 20 minutes. The reaction was terminated by rapid filtration, (Brandel Cell Harvestor), through Whatman GF/B glass filters that had been presoaked in Krebs-Hepes buffer pH 7.4. The filters were then washed 2x with 5 ml of ice cold Krebs-Hepes buffer pH 7.4. Washed filters were placed in scintillation vials and 10 ml RedySolv, (Brandel), was added and samples counted in a Searle D-300 beta counter. Means and standard error statistics were calculated for triplicate experimental determinations in certain cases. The incubation time for the reaction mixture was 20 minutes at 37° C.
Ki values were calculated using a minitab statistical program according to the following formula: [formula] wherein IC50 is the concentration at which 50% of the ^3 H ligand is displaced by the test compounds and KD is the dissociation constant for the ^3 H ligand at the receptor site. KD can be determined as described by Bennett, "Methods in Binding Studies", Neurotransmitter Receptor Binding, Yamamura, et al., ed., p. 57-90, Raven Press, N.Y. (1978) incorporated herein by reference.
In the Table, column 1 sets forth the Example Number of the compound evaluated, column 2 the Ki value in nanomolar (nM) at the mu receptor and columns 3 and 4 the percent displacement by the test compound at the indicated concentration, i.e., 10 nm or 100 nm.

[2] = 20 min, read-out: % displacement at 10 nM, 10 nM test compound, [3H] naloxone 0.5 nM
[3] = 20 min, read-out: % displacement at 100 nM, 100 nM test compound, [3H] naloxone 0.5 nM
[4] = 20 min, read-out: % displacement at 10 nM
[5] = [3H] naloxone 0.5 nM, pH 7.4, 37° C., 20 min

T3 sequence (P33535 whole entry): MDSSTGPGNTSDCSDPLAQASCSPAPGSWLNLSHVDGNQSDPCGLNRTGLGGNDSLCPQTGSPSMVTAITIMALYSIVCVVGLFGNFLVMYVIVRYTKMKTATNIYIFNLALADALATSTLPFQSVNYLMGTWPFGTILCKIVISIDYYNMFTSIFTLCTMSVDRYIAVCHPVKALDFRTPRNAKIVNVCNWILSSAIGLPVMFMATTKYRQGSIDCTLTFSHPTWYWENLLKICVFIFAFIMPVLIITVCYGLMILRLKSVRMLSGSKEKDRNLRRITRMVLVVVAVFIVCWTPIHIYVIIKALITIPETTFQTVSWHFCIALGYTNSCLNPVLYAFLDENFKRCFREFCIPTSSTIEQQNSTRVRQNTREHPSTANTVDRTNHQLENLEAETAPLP
T1 sequence (P42866 whole entry): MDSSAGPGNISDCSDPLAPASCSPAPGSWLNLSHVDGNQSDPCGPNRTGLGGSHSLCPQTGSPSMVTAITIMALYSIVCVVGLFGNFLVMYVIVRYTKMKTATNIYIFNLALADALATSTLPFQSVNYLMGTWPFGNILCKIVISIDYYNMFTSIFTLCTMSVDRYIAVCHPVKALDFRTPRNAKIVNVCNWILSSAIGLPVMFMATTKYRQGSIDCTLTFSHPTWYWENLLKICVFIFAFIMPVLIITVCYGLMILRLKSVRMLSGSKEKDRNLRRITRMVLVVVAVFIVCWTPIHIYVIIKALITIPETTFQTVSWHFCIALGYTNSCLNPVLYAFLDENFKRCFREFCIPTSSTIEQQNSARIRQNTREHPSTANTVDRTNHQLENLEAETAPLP
T2 sequence (P42866 whole entry): as above

| SMILES | AD50 (opioid receptor) | Ratio (AD50 mouse writhing test / ED50 mouse diarrhea test) [1] | ED50 [1] [mg/kg] | pKi (mu receptor) | inhibition at 0.01 µM (mu receptor; [2]) [%] | inhibition at 0.1 µM (mu receptor; [3]) [%] | inhibition at 0.01 µM (mu receptor; [4]) [%] | further results |
| --- | --- | --- | --- | --- | --- | --- | --- | --- |
| C[C@H]1CN(CC(Cc2ccccc2)C(=O)NCC(N)=O)CC[C@@]1(C)c1cccc(O)c1 (stereo partly shown) [Example 46, N-(2-amino-2-oxoethyl)-3-[3,4-dimethyl-4-(3-hydroxyphenyl)-1-piperidinyl]-2-phenylmethyl propanamide monohydrochloride monohydrate] | 40 | 571 | 0.07 | 9.51 | 99 | 95 |  |  |
| C[C@H]1CN(CC(Cc2ccccc2)C(=O)NCC(=O)O)CC[C@@]1(C)c1cccc(O)c1 (stereo partly shown) [Example 44, 2-[[3-[4-(3-hydroxyphenyl)-3,4-dimethyl-1-piperidinyl]-1-oxo-2-(phenylmethyl)propyl]-amino]acetic acid monohydrate] | > 40 | > 266 | 0.15 |  |  |  | 87 | inhibition at 0.1 µM (mu receptor; 20 min, read-out: % displacement at 100 nM): 94%; pKi (mu receptor; [3H] naloxone 0.5 nM, pH 7.4, 37° C., 20 min, read-out: Ki): 9.05 |
| C[C@H]1CN(CCC(C(=O)NCC(=O)O)C2CCCCC2)CC[C@@]1(C)c1cccc(O)c1 (relative stereo) [Example 27, 2-[[2-cyclohexyl-4-[4-(3-hydroxyphenyl)-3,4-dimethyl-1-piperidinyl]-1-oxobutyl]amino]-acetic acid monohydrate] | 15.3 | 51 | 0.3 | 9.04 |  | 99 | 92 |  |
| CCOC(=O)CCCNC(=O)C(Cc1ccccc1)CN1CC[C@@](C)(c2cccc(O)c2)[C@@H](C)C1 (stereo partly shown) [Example 61, 4-[[3-[4-(3-hydroxyphenyl)-3,4-dimethyl-1-piperidinyl]-1-oxo-2-(phenylmethyl)propyl]-amino]butanoic acid ethyl ester monohydrochloride monohydrate] |  | 66 | 0.05 |  | 98 | 99 |  | pKi (mu receptor; [5]): 8.72 |
| CC(C)COC(=O)CNC(=O)C(Cc1ccccc1)CN1CC[C@@](C)(c2cccc(O)c2)[C@@H](C)C1 (single isomer, unassigned) [Example 97D] |  |  |  |  |  |  |  | AD50 (opioid receptor; listed as 97D**, 1.25 mg/kg): 32; AD50 (opioid receptor; listed as 97D*, 1.25 mg/kg): 12.7; Ratio (AD50 mouse writhing test / ED50 mouse diarrhea test) ([1]; listed as 97D*): 317; Ratio (AD50 mouse writhing test / ED50 mouse diarrhea test) ([1]; listed as 97D**): 53; ED50 (diarrhea) ([1]; listed as 97D**): 0.6; ED50 (diarrhea) ([1]; listed as 97D*): 0.04 |
| CNC(=O)CNC(=O)C(CCN1CC[C@@](C)(c2cccc(O)c2)[C@@H](C)C1)c1ccccc1 (relative stereo) [Example 13, N-(methyl)-2-[[4-[4-(3-hydroxyphenyl)-3,4-dimethyl-1-piperidinyl]-2-phenyl-1-oxobutyl]amino]acetamide monohydrochloride] |  | > 125 | 0.32 |  | 94 | 95 |  | pKi (mu receptor; [5]): 9.37 |
| C[C@H]1CN(CC(Cc2ccccc2)C(=O)NCC(=O)OC2CCCCC2)CC[C@@]1(C)c1cccc(O)c1 (stereo partly shown) [Example 52, 2-[[2-(phenylmethyl)-1-oxo-3-[4-(3-hydroxyphenyl)-3,4-dimethyl-1-piperidinyl]propyl]amino]-ethanoic acid cyclohexyl ester monohydrochloride] |  | 40 | 0.2 |  |  |  |  | inhibition at 0.01 µM (mu receptor; 20 min, 10 nM test compound, [3H] naloxone 0.5 nM, read-out: % displacement at 10 nM): 53%; inhibition at 0.1 µM (mu receptor; 20 min, 100 nM test compound, [3H] naloxone 0.5 nM, read-out: % displacement at 100 nM): 92% |
| C[C@H]1CN(CCC(C(=O)NCC(N)=O)c2ccccc2)CC[C@@]1(C)c1cccc(O)c1 (relative stereo) [Example 14, trans-N-(2-amino-2-oxoethyl)-4-[3,4-dimethyl-4-(3-hydroxyphenyl)-1-piperidinyl]-2-phenylbutanamide monohydrochloride monohydrate] |  | > 43 | 0.92 | 8.19 |  | 93 | 87 |  |
